Values joined by “and” are separate entries in the source; they are usually repeats but may differ in a detail not shown here. Identical values can stand only once.
Tests used:
[1] = molecular target: Glutamate metabotropic receptor 1 (Sus scrofa, UniProt F1S737)
[2] = molecular target: Glutamate metabotropic receptor 5 (Cavia porcellus, UniProt H0VDS0)
Glutamate metabotropic receptor 5, sequence (H0VDS0 whole entry): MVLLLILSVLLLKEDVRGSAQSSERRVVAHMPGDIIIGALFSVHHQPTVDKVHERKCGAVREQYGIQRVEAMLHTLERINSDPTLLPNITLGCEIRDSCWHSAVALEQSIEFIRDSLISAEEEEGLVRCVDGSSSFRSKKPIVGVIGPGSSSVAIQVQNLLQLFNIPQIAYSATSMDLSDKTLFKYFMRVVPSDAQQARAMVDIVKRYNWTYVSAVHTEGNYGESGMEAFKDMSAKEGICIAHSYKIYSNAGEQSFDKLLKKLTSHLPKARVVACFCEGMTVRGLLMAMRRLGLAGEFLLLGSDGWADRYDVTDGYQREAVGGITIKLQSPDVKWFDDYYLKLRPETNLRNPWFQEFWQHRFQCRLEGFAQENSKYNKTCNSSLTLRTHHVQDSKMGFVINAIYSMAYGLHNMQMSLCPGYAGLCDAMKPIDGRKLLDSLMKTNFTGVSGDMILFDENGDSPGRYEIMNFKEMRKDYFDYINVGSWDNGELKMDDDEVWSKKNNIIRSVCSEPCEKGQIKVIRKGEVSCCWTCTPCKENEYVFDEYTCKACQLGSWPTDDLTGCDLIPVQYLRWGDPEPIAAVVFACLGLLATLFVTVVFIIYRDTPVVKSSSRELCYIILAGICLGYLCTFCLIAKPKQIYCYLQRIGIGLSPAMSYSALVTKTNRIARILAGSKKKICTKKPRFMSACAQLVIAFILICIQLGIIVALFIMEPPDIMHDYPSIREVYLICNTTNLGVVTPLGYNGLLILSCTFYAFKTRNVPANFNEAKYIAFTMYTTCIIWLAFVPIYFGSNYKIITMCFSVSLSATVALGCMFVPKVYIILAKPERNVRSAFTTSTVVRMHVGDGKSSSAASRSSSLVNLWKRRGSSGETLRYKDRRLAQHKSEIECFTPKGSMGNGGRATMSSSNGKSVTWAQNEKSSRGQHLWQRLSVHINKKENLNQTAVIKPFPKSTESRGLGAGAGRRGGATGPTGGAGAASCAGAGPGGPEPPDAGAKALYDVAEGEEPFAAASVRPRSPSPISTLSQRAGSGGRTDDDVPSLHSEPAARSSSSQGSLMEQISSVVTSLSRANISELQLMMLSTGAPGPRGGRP

Glutamate metabotropic receptor 1, sequence (F1S737 whole entry): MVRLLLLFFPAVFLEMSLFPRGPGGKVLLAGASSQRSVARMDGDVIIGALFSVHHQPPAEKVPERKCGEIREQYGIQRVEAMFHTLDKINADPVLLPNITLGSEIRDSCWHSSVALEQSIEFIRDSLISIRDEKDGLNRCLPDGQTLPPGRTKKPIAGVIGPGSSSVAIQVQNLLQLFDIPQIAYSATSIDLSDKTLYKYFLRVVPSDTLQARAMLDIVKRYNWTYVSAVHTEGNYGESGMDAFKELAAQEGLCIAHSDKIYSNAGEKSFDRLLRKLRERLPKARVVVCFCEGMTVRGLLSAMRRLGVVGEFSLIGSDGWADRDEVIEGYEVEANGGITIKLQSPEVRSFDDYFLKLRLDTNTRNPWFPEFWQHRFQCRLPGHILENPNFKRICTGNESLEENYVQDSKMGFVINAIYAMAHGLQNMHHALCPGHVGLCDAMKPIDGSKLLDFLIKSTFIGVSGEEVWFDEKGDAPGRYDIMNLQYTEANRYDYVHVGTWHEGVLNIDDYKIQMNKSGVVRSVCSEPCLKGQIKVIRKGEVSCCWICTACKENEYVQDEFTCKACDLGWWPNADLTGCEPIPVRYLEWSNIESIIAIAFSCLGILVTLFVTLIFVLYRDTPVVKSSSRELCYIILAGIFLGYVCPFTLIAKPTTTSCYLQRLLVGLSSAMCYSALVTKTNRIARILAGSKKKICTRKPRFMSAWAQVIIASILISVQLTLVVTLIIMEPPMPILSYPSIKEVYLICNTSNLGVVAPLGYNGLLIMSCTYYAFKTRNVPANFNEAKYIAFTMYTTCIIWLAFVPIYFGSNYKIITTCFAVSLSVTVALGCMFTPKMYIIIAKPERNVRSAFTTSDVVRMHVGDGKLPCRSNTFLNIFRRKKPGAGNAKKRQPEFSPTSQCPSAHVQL

| SMILES | Ki [1] | Ki [2] |
| --- | --- | --- |
| N[C@]1(C(=O)O)CC[C@@H](C(=O)O)C1 | > 10 µM | > 10 µM |
| N[C@@]1(C(=O)O)CC[C@H](C(=O)O)C1 [1S, 3R-ACPD] | > 10 µM and 9.3 µM | > 10 µM and 6.7 µM and 5.3 µM |
| N[C@@H](Cn1oc(=O)[nH]c1=O)C(=O)O [2-amino-3-(3,5-dioxo[1,2,4]oxadiazolidin-2-yl)propionic acid] | 0.26 µM | 0.022 µM and 0.047 µM |
| NC(C(=O)O)c1cc(=O)[nH]o1 (stereo not given) [Amino-(3-hydroxy-isoxazol-5-yl)-acetic acid(Ibotenic acid)] | > 10 µM | 2.87 µM and 1.93 µM |
| N[C@@H](CCC(=O)O)C(=O)O [L-Glutamic acid] | > 10 µM | 9.75 µM and 7.67 µM |
